Laboratory results from article PMC11855478, “Bicyclic N,S-Acetals Containing Fused Cysteine-Amide System as New Heterocyclic Class Targeting Human Farnesyltransferase (FTase-h)” (International Journal of Molecular Sciences, 2025).
Where two headings read alike, the source gives them in different places.

How the values were obtained:
FTase = settings: Figure 1, cited from earlier work
[1] = target: human farnesyltransferase (FTase) (Homo sapiens, UniProt P49354+P49356); assay: FTase inhibitory assay (fluorescence, Dansyl-GCVLS); assay type: biochemical; settings: for % FTI: inhibition of human FTase at 100 μM of tested compound, mean of two experiments; for IC50: human FTase in vitro
Experimental: With 40 new products in hand, the determination of their inhibitory activity on human farnesyl-transferase (FTase) in vitro was first undertaken. Dimethyl sulfoxide (DMSO) was used as the negative control, and Chaetomellic acid A was the positive reference in all assays. At the outset, and in order to select only significant results, products with an inhibitory power greater than 60% at an initial screening concentration of 100 µM were retained for the determination of their IC50 and, therefore, for further discussion. Moreover, given the number of products tested, they are grouped into three subfamilies on the basis of the degree of the sulphur atom oxidation (series of sulfides, series of sulfoxides, and series of sulfones), and the results obtained are grouped in Table 1, Table 2 and Table 3.
3.3. FTase Inhibitory Assay
Assays were realized in 96-well plates, prepared with a Biomek NKMC and a Biomek 3000 from Beckman Coulter, and read on a Wallac Victor fluorimeter from PerkinElmer. Per well, 20 µL of farnesyl pyrophosphate (10 μM) was added to 180 µL of a solution containing 2 µL of varied concentrations of potential inhibitors (dissolved in DMSO) and 178 μL of a solution composed of 10 μL of partially purified recombinant human FTase (15 µg mL^−1) and 1.0 µL of Dansyl-GCVLS peptide (in the following buffer: 5.6 mM DTT, 5.6 mM MgCl2, 12 μM ZnCl2 and 0.2% (w/v) octyl-β-D-glucopyranoside, 52 mM Tris/HCl, pH 7.5). Fluorescence was recorded for 15 min (0.7 s per well, 20 repeats) at 30 °C with an excitation filter at 340 nm and an emission filter of 486 nm. Each measurement was reproduced twice, in duplicate. The kinetic experiments were realized under the same conditions, either with FPP as varied substrate with a constant concentration of Dns-GCVLS of 2.5 μM or with Dns-GCVLS as varied substrate with a constant concentration of FPP of 10 μM. Non-linear regressions were performed using the Excel software.

% FTI [1]	Compound	further results
53%	COc1ccc(CNC(=O)C2CS(=O)(=O)C3c4ccccc4C(=O)N23)cc1OC (centres unmarked) [7aI]	–
47%	COc1ccccc1CNC(=O)[C@@H]1CS(=O)(=O)[C@H]2c3ccccc3C(=O)N12 [7aG]	–
44%	COc1ccc(CNC(=O)[C@@H]2CS(=O)(=O)[C@@]3(C)c4ccccc4C(=O)N23)cc1 [7bF]	–
32%	C[C@]12c3ccccc3C(=O)N1[C@H](C(=O)NCc1cccc(C(F)(F)F)c1)CS2(=O)=O [7bD]	–
28%	O=C(NCc1cccc(C(F)(F)F)c1)[C@@H]1CS(=O)(=O)[C@H]2c3ccccc3C(=O)N12 [7aD]	–
13%	COc1ccc(CNC(=O)[C@@H]2CS(=O)(=O)[C@@]3(C)c4ccccc4C(=O)N23)cc1OC [7bI]	–
41%	C[C@]12c3ccccc3C(=O)N1[C@H](C(=O)NCc1ccccc1)CS2(=O)=O [7bA]	–
76%	C[C@]12c3ccccc3C(=O)N1[C@H](C(=O)NCc1ccc(Cl)cc1Cl)CS2(=O)=O [7bH]	FTase inhibitory activity (in words) [1]: false positive
74%	COc1ccccc1CNC(=O)[C@@H]1CS(=O)(=O)[C@@]2(C)c3ccccc3C(=O)N12 [7bG]	IC50 [1]: 67.3 nM
20%	O=C(NCc1ccccc1)[C@@H]1CS(=O)(=O)[C@H]2c3ccccc3C(=O)N12 [7aA]	–
34%	COc1ccc(CNC(=O)[C@@H]2CS(=O)(=O)[C@H]3c4ccccc4C(=O)N23)cc1 [7aF]	–
53%	COc1cccc(CNC(=O)[C@@H]2CS(=O)(=O)[C@@]3(C)c4ccccc4C(=O)N23)c1 [7bE]	–
42%	COc1cccc(CNC(=O)[C@@H]2CS(=O)(=O)[C@H]3c4ccccc4C(=O)N23)c1 [7aE]	–

Continued, molecule first:

Compound	% FTI [1]	further results
CCCC[C@@H](C)/C=C(C)/C=C(\C)C(=O)NC1=C[C@@](O)(/C=C/C=C/C=C/C(=O)NC2=C(O)CCC2=O)[C@@H]2O[C@@H]2C1=O [Manumycin-A]	–	IC50 (FTase; known FTIs): 30 nM
CC12c3ccccc3C(=O)N1C(C(=O)NCc1ccccc1)C[S+]2[O-] (centres unmarked) [5bA]	30%	–
Cn1cncc1[C@@](N)(c1ccc(Cl)cc1)c1ccc2c(c1)c(-c1cccc(Cl)c1)cc(=O)n2C [Tipifarnib (R115777), Tipifarnib]	–	IC50 (FTase; known FTIs): 7.9 nM
COc1ccc(CNC(=O)[C@@H]2C[S+]([O-])[C@@]3(C)c4ccccc4C(=O)N23)cc1OC (some centres unmarked) [5bI]	0%	FTase inhibitory activity (in words) [1]: complete loss of inhibitory activity
C[C@]12c3ccccc3C(=O)N1[C@H](C(=O)NCc1ccc(Cl)cc1Cl)C[S+]2[O-] (some centres unmarked) [5bH]	31%	–
CS(=O)(=O)CC[C@H](NC(=O)c1cccc(CNC(=O)[C@@H](N)CS)c1)C(=O)O [C-AMBA-M]	–	IC50 (FTase; known FTIs): 60 nM
COc1ccc(CNC(=O)[C@@H]2C[S+]([O-])[C@@]3(C)c4ccccc4C(=O)N23)cc1 (some centres unmarked) [5bF]	68%	–
COC1=C(OC)[C@H](O)[C@H](C/C=C(\C)CC/C=C(\C)CCC=C(C)C)[C@@H](C)C1=O [Antroquinonol]	–	IC50 (FTase; known FTIs): 2990 nM
C[C@]12c3ccccc3C(=O)N1[C@H](C(=O)NCc1cccc(C(F)(F)F)c1)C[S+]2[O-] (some centres unmarked) [5bD]	43%	–
CN1C(=O)[C@]23CC4=CC=C[C@H](O)[C@H]4N2C(=O)[C@@]1(CO)SS3 [Gliotoxin]	–	IC50 (FTase; known FTI): 80000 nM; IC50 (FTase; known FTIs): 80 nM
CCCCCCCCCCCCCC/C(C(=O)O)=C(\C)C(=O)O [Ref., Chaetomellic acid A, reference compound]	100%	IC50 [1]: 183 nM
COc1ccccc1CNC(=O)[C@@H]1C[S+]([O-])[C@@]2(C)c3ccccc3C(=O)N12 (some centres unmarked) [5bG]	87%	IC50 [1]: 4.03 nM
COc1cccc(CNC(=O)[C@@H]2C[S+]([O-])[C@@]3(C)c4ccccc4C(=O)N23)c1 (some centres unmarked) [5bE]	62%	–
